Experimental data taken from article PMC5840523, “Assessment of a pretomanid analogue library for African trypanosomiasis: Hit-to-lead studies on 6-substituted 2-nitro-6,7-dihydro-5H-imidazo[2,1-b][1,3]thiazine 8-oxides” (Bioorganic & Medicinal Chemistry Letters, 2018).
Converted amounts (≈) assume the structure as drawn. Like-named read-outs stand apart in the source and are kept apart here.

How the values were obtained:
[1] = system: human lung fibroblasts (MRC-5 cells); experiment: Cytotoxicity toward MRC-5 cells (University of Antwerp); assay type: cell-based; settings: Homo sapiens, MRC5, cytotoxicity toward human lung fibroblasts
[2] = Mouse liver microsomal stability; assay type: in vitro ADME; settings: CD-1 mouse liver microsomes
L929 mouse fibroblasts = experiment: Cytotoxicity toward L929 mouse fibroblasts (Scynexis); assay type: cell-based
[3] = Human liver microsomal stability; assay type: in vitro ADME; settings: pooled human liver microsomes
Trypanosoma cruzi = experiment: T. cruzi growth inhibition (University of Antwerp); assay type: cell-based; settings: mean of 2 to 5 determinations
T. b. brucei 427 [4] = experiment: T. b. brucei growth inhibition (University of Antwerp); assay type: cell-based, Trypanosoma brucei brucei; settings: T. b. brucei 427, mean of 2 to 5 determinations, read-out: IC50 T. b. bruc
T. b. brucei 427 [5] = experiment: T. b. brucei 427 growth inhibition (Scynexis); assay type: cell-based, Trypanosoma brucei brucei; settings: for IC50: Trypanosoma brucei, growth inhibition of T. b. brucei 427, mean ± SD; for Selectivity Index: L929 vs T. b. brucei
Leishmania infantum = experiment: L. infantum growth inhibition (University of Antwerp); assay type: cell-based; settings: mean of 2 to 5 determinations
T. b. rhodesiense = T. b. rhodesiense growth inhibition (University of Antwerp); assay type: cell-based, Trypanosoma brucei rhodesiense; settings: mean of 2 to 5 determinations, read-out: IC50 T. b. rhod
in vitro = settings: dog, MDCK-MDR1, Permeability Papp
[6] = Mouse pharmacokinetics (plasma, whole blood, brain); assay type: in vivo, male CD-1 mice; settings: male, CD-1, mouse; for bioavailability: po; for Vd: read-out: Vdss; for half-life: read-out: t1/2 (converted)
Procedure: In order to determine the suitability of the more permeable hits for in vivo efficacy studies, we first measured their aqueous solubilities, and their tendencies to metabolise, following a 1 h incubation with CD-1 mouse liver S9 subcellular fractions.[14] […] This led us to probe their in vivo pharmacokinetic (PK) profiles in mice, examining concentration levels in plasma, whole blood and brain tissue following both intravenous and oral administration (Table 2; for further experimental details, see the Supporting Information). […]
Mouse Pharmacokinetics. The in-life portion of PK testing was carried out by ViviSource Laboratories, Inc., Mass achusetts, USA, and PK samples were anal ysed by Sc ynexis, Inc.
Test compounds (9, 12, 17, and 19) w er e each administered as single doses to groups of 10 male CD-1 mice by bolus intravenous injection or oral gavage. Intravenous dosing (at a nominal dose of 2 mg/kg) emplo yed a solution vehicle comprising either 20% EtOH, 20% propylene gl ycol, and 30% PEG -400 in normal saline (for powders 9, 17, and 19) or 0.5% (hydrox yprop yl)meth ylcellulose, 0.4% Tween 80, 0.5% benz yl alcohol, and 20% DMSO i n deionised water (for oil 12). […]
in 0.5% methylcellulose, 0.08% Tween 80 in water ( ex cept fo r oil 12, where the formulation additionally contained 20% DMSO). […]

[7] = Kinetic aqueous solubility in pH 7.4 PBS; assay type: physicochemical
Source text: Table 1 Inhibitory potency, metabolic stability, aqueous solubility, and MDCK-MDR1 cell permeability for 15 screening hits against T. b. brucei. | column: Solubility ^c / (µg/mL)

Mouse liver S9 stability = assay type: in vitro ADME; settings: CD-1, mouse, mouse liver S9 subcellular fraction, half-life in mouse liver S9 fraction; read-out: Mouse S9 t1/2
MDCK-MDR1 cell monolayer = settings: dog, MDCK-MDR1, 1 h, 3 µM
[8] = Trypanosoma brucei, RHODESIENSE
[9] = brain, intravenous, corrected doses 0.5, 1.1, 2.9, 2.0 mg/kg for 9, 12, 17, 19
[10] = brain, oral, corrected doses 62, 50, 78, 49 mg/kg for 9, 12, 17, 19
[11] = plasma, intravenous, corrected doses 0.5, 1.1, 2.9, 2.0 mg/kg for 9, 12, 17, 19
[12] = plasma, oral, corrected doses 62, 50, 78, 49 mg/kg for 9, 12, 17, 19
[13] = whole blood, intravenous, corrected doses 0.5, 1.1, 2.9, 2.0 mg/kg for 9, 12, 17, 19
[14] = whole blood, oral, corrected doses 62, 50, 78, 49 mg/kg for 9, 12, 17, 19

O=[N+]([O-])c1cn2c(n1)[S@+]([O-])C[C@H](OCc1ccc(OC(F)(F)F)cc1)C2 [Compound 27]
IC50 [1]: > 64 µM | remaining at 1 h [2]: 89% | IC50 (L929 mouse fibroblasts): > 10 µg/mL | remaining at 1 h [3]: 88% | IC50 (Trypanosoma cruzi; Trypanosoma cruzi): 13 µM | IC50 (T. b. brucei 427 [4]; Trypanosoma brucei): 16 µM | IC50 (T. b. brucei 427 [5]): > 5 µg/mL | IC50 (Leishmania infantum; Leishmania infantum): 48 µM | IC50 (T. b. rhodesiense; [8]): 4.3 µM

O=[N+]([O-])c1cn2c(n1)[S@@+]([O-])C[C@@H](OCc1ccc(OC(F)(F)F)cc1)C2 [Compound 25]
IC50 [1]: > 64 µM | remaining at 1 h [2]: 93% | IC50 (L929 mouse fibroblasts): > 10 µg/mL | remaining at 1 h [3]: 93% | IC50 (Trypanosoma cruzi; Trypanosoma cruzi): 13 µM | IC50 (T. b. brucei 427 [4]; Trypanosoma brucei): 5.6 µM | IC50 (T. b. brucei 427 [5]): 2.8 ± 0.4 µg/mL (≈ 7.16 µM) | IC50 (Leishmania infantum; Leishmania infantum): > 64 µM | IC50 (T. b. rhodesiense; [8]): 1.9 µM

O=[N+]([O-])c1cn2c(n1)[S+]([O-])CC(OCc1ccc(OC(F)(F)F)cc1)C2 (stereo not shown) [Compound 12]
IC50 [1]: 60 µM | Papp at 1 h, 3 µM (in vitro): 79.8 ×10⁻⁶ cm/s | IC50 (L929 mouse fibroblasts): > 10 µg/mL | bioavailability ([6]; brain, from dose normalised AUClast values, read-out: F (oral bioavailability)): 55% | bioavailability ([6]; over the three sampling sites (plasma, whole blood, brain), read-out: oral bioavailability): 52 to 55% | bioavailability ([6]; plasma, from dose normalised AUClast values, read-out: F (oral bioavailability)): 55% | bioavailability ([6]; whole blood, from dose normalised AUClast values, read-out: F (oral bioavailability)): 52% | AUC(0-t) [6, 9]: 2850 ng·h/mL | clearance [6, 9]: 6.67 mL/min/kg | Vd [6, 9]: 1.3 L/kg | half-life [6, 9]: 2.3 h | AUC(0-t) [6, 10]: 71200 ng·h/mL | Cmax [6, 10]: 14000 ng/mL | Tmax [6, 10]: 4 h | half-life [6, 10]: 6.9 h | AUC(0-t) [6, 11]: 2090 ng·h/mL | clearance [6, 11]: 8.67 mL/min/kg | Vd [6, 11]: 1.6 L/kg | half-life [6, 11]: 2.5 h | AUC(0-t) [6, 12]: 51900 ng·h/mL | Cmax [6, 12]: 9300 ng/mL | Tmax [6, 12]: 4 h | half-life [6, 12]: 6.9 h | AUC(0-t) [6, 13]: 2700 ng·h/mL | clearance [6, 13]: 6.5 mL/min/kg | Vd [6, 13]: 1.7 L/kg | half-life [6, 13]: 9.3 h | AUC(0-t) [6, 14]: 63500 ng·h/mL | Cmax [6, 14]: 8600 ng/mL | Tmax [6, 14]: 4 h | half-life [6, 14]: 5.8 h | solubility [7]: 39 µg/mL (≈ 99.7 µM) | IC50 (Trypanosoma cruzi): 1.5 µM | half-life (Mouse liver S9 stability): > 5.83 h | IC50 (T. b. brucei 427 [4]): 0.27 µM | Selectivity Index (T. b. brucei 427 [5]): >63 | IC50 (T. b. brucei 427 [5]): 0.16 ± 0.07 µg/mL (≈ 0.409 µM) | IC50 (Leishmania infantum): 16 µM | IC50 (T. b. rhodesiense): 0.25 µM

O=[N+]([O-])c1cn2c(n1)S(=O)(=O)CC(OCc1ccc(OCc3ccccc3)cc1)C2 (stereo not shown) [Compound 10]
IC50 [1]: > 64 µM | IC50 (L929 mouse fibroblasts): > 10 µg/mL | IC50 (Trypanosoma cruzi; Trypanosoma cruzi): 0.35 µM | absolute AQ (MDCK-MDR1 cell monolayer): ≥ 0.3 | IC50 (T. b. brucei 427 [4]; Trypanosoma brucei): 0.097 µM | Selectivity Index (T. b. brucei 427 [5]): >303 | IC50 (T. b. brucei 427 [5]): 0.033 ± 0.018 µg/mL (≈ 0.0768 µM) | IC50 (Leishmania infantum; Leishmania infantum): 7.3 µM | IC50 (T. b. rhodesiense; [8]): 0.027 µM

O=[N+]([O-])c1cn2c(n1)OCC(COc1ccc(-c3ccc(C(F)(F)F)cc3)nc1)C2 (stereo not shown) [Compound 14]
Papp at 1 h, 3 µM (in vitro): < 15 ×10⁻⁶ cm/s | IC50 (L929 mouse fibroblasts): > 10 µg/mL | Permeability Papp (MDCK-MDR1 cell monolayer): 11.7 ×10⁻⁶ cm/s | absolute AQ (MDCK-MDR1 cell monolayer): ≥ 0.3 | Selectivity Index (T. b. brucei 427 [5]): >36 | IC50 (T. b. brucei 427 [5]): 0.28 ± 0.11 µg/mL (≈ 0.666 µM)

O=[N+]([O-])c1cn2c(n1)OCC(COc1ccc(-c3ccc(OC(F)(F)F)cc3)nc1)C2 (stereo not shown) [Compound 18]
IC50 (L929 mouse fibroblasts): > 10 µg/mL | absolute AQ (MDCK-MDR1 cell monolayer): ≥ 0.3 | Selectivity Index (T. b. brucei 427 [5]): >12 | IC50 (T. b. brucei 427 [5]): 0.83 ± 0.41 µg/mL (≈ 1.9 µM)
